In brackets after ≈: the same amount, converted by molar mass.
Assays:
[1] = physchem; format: physicochemical; conditions: for solubility: thermodynamic from solid, Shake-flask solubility
Procedure: The solubilities of α and γ indomethacin were measured by the conventional shake-flask method in HCl (pH 1.6), FaSSGFblk, and FeSSIFblk. A detailed description of the methodology can be found in the Supporting Information on page S-2.
Effect of particle morphology on the solubility values measured by the SPA method was assessed by the
MatLab® regionprops toolbox. Three morphology-describing parameters were extracted; namely:
eccentricity, major axis length and minor axis length. The morphology parameters were then plotted against
solubility values of individual particles (Figure S1 and Figure S2). No specific effect of particle morphology
on solubility, in the size range studied (5-25 µm), was found.
Shake-flask solubility measurements
Indomethacin α and γ samples were placed in excess amount into vials. The vials were filled with HCl,
FaSSGFblk and FeSSIFblk media and left to stir on a rotating machine. This procedure was repeated in
triplicate for both solid-state forms and the three media. After 24h, 48h and 72h samples of 2 mL were
extracted and filtered (Whatman™ PVDF 13 mm with 0.45 µm pore size). After filtration, the samples of α
indomethacin were diluted four times with the corresponding medium […]
The drug concentration in the samples was determined using an Agilent High Performance Liquid
Chromatography (HPLC) 1260 system (Agilent Technologies, Germany). The Phenomenex Gemini NX-
C18, 3 µm, 100 x 4.6 mm column (Phenomenex, Torrance, CA) was used in the assays. The temperature of
the column was set to 30°C. Mobile phase used was 0.2% H3PO4:Acetonitrile (40:60, v:v) with flow rate of
1.5 mL/min. Injection volume was 20 µL and total run time 5 min. Detection was preformed at 270 nm.
Standard solutions of indomethacin in MilliQ:Ethanol (50:50, v:v) were prepared and analyzed with HPLC
to construct the calibration curve. All samples were analyzed in triplicate: 0.1, 0.5, 1, 10, 50 and 100 µg/mL
After 72h, the remaining excess solids, from vials were initially α form of indomethacin was placed, were
filtered and dried overnight in a vacuum oven. The next day, the excess solids were analyzed by XRPD and
XRPD diffractograms of the
remaining solids are presented in the Figure S3 and DSC thermograms in the Figure S4.
When comparing the shake-flask solubility values to the SPA solubility values, they are in the same rank
order and within the generally accepted interlaboratory variance, 0.6 log units.32 Moreover, a slight shift of
XRPD peaks to the left and appearance of a small melting peak at 159.3°C ± 0.1°C in the DSC thermograms
of the remaining excess solid samples indicate a presence of γ form (Figure S3 and S4). The presence of γ
form, in vials were initially pure α form was placed, would result in lower solubility ratio of α to γ solubility
measured by shake-flask method (1.7 ± 0.4) when compared to the ratio obtained by the SPA method (3.3 ±
0.5). With the SPA method, the actual solubility of the metastable α form was measured before any possible
solid-state transformation occurred that could affect the measurement. This was achieved by starting the
measurement as soon as the solvent came in contact with the sample and also by maintaining the sink
conditions in the flow-through cell.

[2] = set-up: method as in ref 15 (Fagerberg and co-workers); conditions: 37 °C, μDISS profiler; ref 15 (Fagerberg and co-workers); cited from earlier work
[3] = Image-based single-particle-analysis (SPA) solubility measurement in a flow-through setup; format: physicochemical; conditions: for solubility ratio (RS) FaSSGF/FaSSGFblk / solubility ratio (RS) FaSSGF/HCl / solubility ratio (RS) FaSSGFblk/HCl / solubility ratio (RS) FeSSIF/FeSSIFblk: same solid-state form in different media
Procedure: Dissolution experiments utilizing the SPA method were performed using a custom-made flow-through setup (Figure 1). The experiments were conducted at room temperature (22 °C) rather than at 37 °C in order to ensure controlled experimental conditions. The setup enables the trapping of particles under constant-flow conditions. In this way, dissolved molecules are continuously extracted from the chamber, and sink conditions are maintained. As the measurement can be started as soon as the solvent comes in contact with the entrapped particles, the actual solubility of a metastable form can be measured before any possible solid-state transformation occurs that could affect the solubility. In eq 1, at sink conditions, bulk concentration (Cb) can be disregarded because it is practically zero. This means the dissolution rate (dm/dt) is dependent only on the equilibrium solubility at the interface (CS); k is the setup-dependent transport-rate constant determined as described by Svanbäck.[20] [drawing 1] 1 For a single measurement, approximately 10 mL of dissolution medium and less than 0.1 mg of sample were used. Online images were acquired over 15 min through the transparent part of the flow-through chamber using a USB microscope (Gigastone S1-100, Irvine, CA). At least five particles per solid-state form per medium were measured. For the analysis of the image data, a MatLab script was previously developed by Svanbäck and co-workers.[20],[22] The script enables quantification of the particle’s morphology change (i.e., dissolution rate) and, consequently, calculation of the solubility according to eq 1.

[4] = Estimation of the free-energy difference between polymorphs from DSC melting data; format: physicochemical; conditions: estimated from DSC melting data, extrapolated to room temperature
Procedure: DSC experiments were performed using a DSC823e (Mettler-Toledo, Greifensee, Switzerland) equipped with a refrigerated cooling system (Julabo FT 900, Seelbach, Germany). Nitrogen was used as a purge gas (50 mL/min).
Samples (2–5 mg) were tightly packed into standard aluminum crucibles (40 μL) with pierced lids. Two different procedures were used in these measurements. For determination of melting temperature and enthalpy, the samples were equilibrated at 25 °C for 3 min and then linearly heated with a heating rate of 10 °C/min to 180 °C. For determination of heat capacities, the samples were equilibrated at 140 °C and then heated up to 180 °C using a TOPEM-modulated heating program with a heating rate of 1 °C/min and a pulse height of 1 °C. Samples were measured in triplicate, and thermal events were analyzed using STARe software (Mettler-Toledo, Greifensee, Switzerland). Temperatures of melting, enthalpies of melting, and heat capacities were used to estimate the free-energy difference between the α and γ polymorphs.
The free-energy difference between two polymorphs can be estimated from their melting data or their respective solubility values. […]

[5] = set-up: method as in ref 9 (Hancock et al.); conditions: 200 mL deionized water, 45 °C; ref 9 (Hancock et al.); cited from earlier work
[6] = SPA method, FaSSGF pH 1.6, 22 °C
[7] = SPA method, FaSSGFblk (blank FaSSGF) pH 1.6, 22 °C
[8] = SPA method, FeSSIF pH 5.0, 22 °C
[9] = SPA method, FeSSIFblk (blank FeSSIF) pH 5.0, 22 °C

Row | Compound | solubility [3, 6] [µg/mL] | solubility [3, 7] [µg/mL] | solubility [3, 8] [µg/mL] | solubility [3, 9] [µg/mL] | solubility ratio (RS) FaSSGF/FaSSGFblk ([3]; SPA method) | solubility ratio (RS) FaSSGF/HCl ([3]; SPA method) | solubility ratio (RS) FaSSGFblk/HCl ([3]; SPA method) | solubility ratio (RS) FeSSIF/FeSSIFblk ([3]; SPA method) | further results
1 | COc1ccc2c(c1)c(CC(=O)O)c(C)n2C(=O)c1ccc(Cl)cc1 [γ form, indomethacin] | 0.10 ± 0.02 (≈ 0.279 µM) | 0.04 ± 0.03 (≈ 0.112 µM) | 3.80 ± 1.74 (≈ 10.6 µM) | 0.94 ± 0.58 (≈ 2.63 µM) | 2.5 | 1.0 | 0.4 | 4.0 | Shake-flask solubility ([1]; pH 1.6): 0.3 ± 0.1 µg/mL; Shake-flask solubility ([1]; pH 5): 6.4 ± 0.1 µg/mL; fold increase in solubility from FeSSIFblk to FeSSIF [2]: 7.3 fold; solubility ([3]; SPA method, HCl pH 1.6, 22 °C, listed as Indomethacin γ): 0.10 ± 0.05 µg/mL (≈ 0.279 µM)
2 | COc1ccc2c(c1)c(CC(=O)O)c(C)n2C(=O)c1ccc(Cl)cc1 [α form, indomethacin] | 0.29 ± 0.16 (≈ 0.811 µM) | 0.14 ± 0.09 (≈ 0.391 µM) | 15.7 ± 10.4 (≈ 43.9 µM) | 2.79 ± 1.67 (≈ 7.8 µM) | 2.1 | 0.9 | 0.4 | 5.6 | free-energy difference ΔG between the α and γ polymorphs [4]: 12 ± 7 J/g; free-energy difference ΔG between the α and γ polymorphs [1]: 0.311 kcal/mol; ratio of α- to γ-solid-state-form solubility [1]: 1.7 ± 0.4; solubility ([1]; pH 1.6, fassgf or other biorelevant): 0.5 ± 0.2 µg/mL (≈ 1.4 µM); solubility ([1]; pH 1.6, simulated gastric fluid): 0.6 ± 0.1 µg/mL (≈ 1.68 µM); solubility ([1]; pH 5, fassgf or other biorelevant): 9 ± 0.2 µg/mL (≈ 25.2 µM); solubility ([3]; SPA method, HCl pH 1.6, 22 °C): 0.34 ± 0.20 µg/mL (≈ 0.95 µM); ratio of α- to γ-solid-state-form solubility ([3]; SPA method, constant in all studied media (HCl, FaSSGFblk, FaSSGF, FeSSIFblk, FeSSIF)): 3.3 ± 0.5; free-energy difference ΔG between the α and γ polymorphs ([3]; from the SPA solubility ratios, molar units): 0.693 kcal/mol; free-energy difference ΔG between the α and γ polymorphs ([3]; from the α- to γ-solubility ratio obtained with the SPA method (eq 7), ambient temperature): 8 ± 1 J/g; α- to γ-solubility ratio [5]: 1.1

From article PMC6727188, “Image-Based Investigation: Biorelevant Solubility of α and γ Indomethacin” (Analytical Chemistry, 2019)
